Data taken from ChEMBL document CHEMBL1152016, “Synthesis and -lactamase inhibition of anacardic acids and their analogues” (Bioorg Med Chem Lett, 1994).
≈ marks a conversion by molar mass, not a printed value.

Tests used:
Beta-lactamase pse-1 = molecular target: T1, Beta-lactamase pse-1 (Escherichia coli, UniProt Q2V0Y6); test: Concentration required for its inhibitory activity against Escherichia coli K12(PSE4) class A beta-lactamase
T1 sequence (Q2V0Y6 whole entry): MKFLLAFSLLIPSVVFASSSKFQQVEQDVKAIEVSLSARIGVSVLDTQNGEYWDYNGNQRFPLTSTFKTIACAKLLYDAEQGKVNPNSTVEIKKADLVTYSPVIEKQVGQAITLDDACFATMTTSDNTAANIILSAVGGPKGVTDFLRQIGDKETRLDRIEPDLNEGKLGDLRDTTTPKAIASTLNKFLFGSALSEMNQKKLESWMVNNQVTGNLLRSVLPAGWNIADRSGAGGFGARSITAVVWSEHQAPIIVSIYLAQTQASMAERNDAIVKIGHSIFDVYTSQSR

Beta-lactamase [1] = molecular target: Beta-lactamase (Pseudomonas aeruginosa (strain ATCC 15692 / PAO1 / 1C / PRS 101 / LMG12228), UniProt P24735); test: Concentration required for its inhibitory activity against Pseudomonas aeruginosa class C beta-lactamase
Sequence of Beta-lactamase (Pseudomonas aeruginosa (strain ATCC 15692 / PAO1 / 1C / PRS 101 / LMG12228), UniProt P24735) (P24735 whole entry): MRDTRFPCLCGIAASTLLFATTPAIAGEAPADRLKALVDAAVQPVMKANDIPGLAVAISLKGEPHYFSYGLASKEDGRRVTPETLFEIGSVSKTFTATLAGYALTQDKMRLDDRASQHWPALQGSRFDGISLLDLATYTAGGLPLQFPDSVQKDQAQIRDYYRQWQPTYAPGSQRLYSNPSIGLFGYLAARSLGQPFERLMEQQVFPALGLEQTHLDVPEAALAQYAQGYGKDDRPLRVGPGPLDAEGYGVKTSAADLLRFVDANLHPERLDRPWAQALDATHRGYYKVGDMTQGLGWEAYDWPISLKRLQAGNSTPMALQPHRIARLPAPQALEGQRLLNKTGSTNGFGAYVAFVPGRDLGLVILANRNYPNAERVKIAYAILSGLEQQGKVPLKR

Beta-lactamase [2] = molecular target: T2, Beta-lactamase (Proteus mirabilis, UniProt P30897); test: Concentration required for its inhibitory activity against Proteus mirabilis C889 class A beta-lactamase
T2 sequence (P30897 whole entry): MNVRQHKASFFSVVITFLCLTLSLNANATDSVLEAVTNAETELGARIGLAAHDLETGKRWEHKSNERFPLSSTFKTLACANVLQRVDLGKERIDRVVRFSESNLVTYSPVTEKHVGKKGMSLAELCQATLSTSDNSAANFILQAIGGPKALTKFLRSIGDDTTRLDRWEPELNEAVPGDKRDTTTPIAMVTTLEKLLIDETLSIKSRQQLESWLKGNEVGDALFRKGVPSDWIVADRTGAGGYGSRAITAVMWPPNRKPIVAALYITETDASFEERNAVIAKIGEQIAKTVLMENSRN

Beta-lactamase TEM = Beta-lactamase TEM (Escherichia coli, UniProt P62593); test: Concentration required for its inhibitory activity against Escherichia coli JT4(TEM1) class A beta-lactamase
Sequence of Beta-lactamase TEM (P62593 whole entry): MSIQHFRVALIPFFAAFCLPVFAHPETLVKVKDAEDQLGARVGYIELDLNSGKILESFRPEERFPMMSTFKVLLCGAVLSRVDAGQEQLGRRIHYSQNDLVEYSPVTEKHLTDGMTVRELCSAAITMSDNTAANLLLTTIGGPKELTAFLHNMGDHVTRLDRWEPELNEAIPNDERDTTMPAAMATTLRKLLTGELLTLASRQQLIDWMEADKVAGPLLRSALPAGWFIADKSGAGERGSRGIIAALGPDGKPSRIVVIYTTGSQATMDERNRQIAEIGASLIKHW

Beta-lactamase [3] = molecular target: Beta-lactamase (Enterobacter cloacae, UniProt P05364); test: Concentration required for its inhibitory activity against Enterobacter cloacae P99 class C beta-lactamase
Sequence of Beta-lactamase (Enterobacter cloacae, UniProt P05364) (P05364 whole entry): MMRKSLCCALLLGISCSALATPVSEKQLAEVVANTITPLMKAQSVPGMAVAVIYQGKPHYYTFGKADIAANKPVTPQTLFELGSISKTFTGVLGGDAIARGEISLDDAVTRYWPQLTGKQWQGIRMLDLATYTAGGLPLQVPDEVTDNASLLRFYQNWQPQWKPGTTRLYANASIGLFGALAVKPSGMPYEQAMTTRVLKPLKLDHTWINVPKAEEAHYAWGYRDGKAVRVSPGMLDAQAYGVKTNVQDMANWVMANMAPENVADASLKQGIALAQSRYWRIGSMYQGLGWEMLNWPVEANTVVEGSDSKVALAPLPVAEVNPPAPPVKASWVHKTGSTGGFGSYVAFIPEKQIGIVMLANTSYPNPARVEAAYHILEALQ

Beta-lactamase OXA-1 [4] = molecular target: T3, Beta-lactamase OXA-1 (Escherichia coli, UniProt P13661); test: Concentration required for its inhibitory activity against Escherichia coli K12(OXA1) class D beta-lactamase
T3 sequence (P13661 whole entry): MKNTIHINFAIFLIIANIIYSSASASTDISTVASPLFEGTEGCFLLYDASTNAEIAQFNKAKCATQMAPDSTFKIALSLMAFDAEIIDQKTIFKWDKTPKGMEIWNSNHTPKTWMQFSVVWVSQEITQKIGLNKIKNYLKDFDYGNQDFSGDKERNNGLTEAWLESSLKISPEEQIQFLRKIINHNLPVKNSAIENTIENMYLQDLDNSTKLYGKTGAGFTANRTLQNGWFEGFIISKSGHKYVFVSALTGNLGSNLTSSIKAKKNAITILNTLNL

Beta-lactamase [5] = molecular target: T4, Beta-lactamase (Staphylococcus aureus, UniProt P00807); test: Concentration required for its inhibitory activity against Staphylococcus aureus Russel class A beta-lactamase; No inhibition
T4 sequence (P00807 whole entry): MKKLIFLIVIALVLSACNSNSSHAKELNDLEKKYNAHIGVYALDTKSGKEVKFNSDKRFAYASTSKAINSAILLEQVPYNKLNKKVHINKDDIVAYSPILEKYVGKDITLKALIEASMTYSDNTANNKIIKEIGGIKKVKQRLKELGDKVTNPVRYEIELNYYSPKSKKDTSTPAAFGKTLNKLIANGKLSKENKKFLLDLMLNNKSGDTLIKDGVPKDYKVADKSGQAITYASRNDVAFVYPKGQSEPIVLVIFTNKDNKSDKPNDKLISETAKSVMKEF

Beta-lactamase OXA-1 [6] = molecular target: T3, Beta-lactamase OXA-1; test: Concentration required for its inhibitory activity against Escherichia coli K12(OXA1) class D beta-lactamase; No inhibition
Beta-lactamase [7] = molecular target: T2, Beta-lactamase; test: Concentration required for its inhibitory activity against Proteus mirabilis C889 class A beta-lactamase; No inhibition
Beta-lactamase [8] = molecular target: T4, Beta-lactamase; test: Concentration required for its inhibitory activity against Staphylococcus aureus Russel class A beta-lactamase

Row | SMILES | IC50 (Beta-lactamase pse-1) [µg/mL] | IC50 (Beta-lactamase [1]) [µg/mL] | IC50 (Beta-lactamase [2]) [µg/mL] | IC50 (Beta-lactamase TEM) [µg/mL] | IC50 (Beta-lactamase [3]) [µg/mL] | IC50 (Beta-lactamase OXA-1 [4]) [µg/mL] | IC50 (Beta-lactamase [5]) | IC50 (Beta-lactamase OXA-1 [6]) | IC50 (Beta-lactamase [7]) | IC50 (Beta-lactamase [8])
1 | O=C(O)[C@H]1/C(=C/CO)O[C@@H]2CC(=O)N21 [CLAVULANIC ACID] | 0.015 (≈ 0.0753 µM) | – | – | – | – | – | – | – | – | –
2 | C=CC/C=C\C/C=C\CCCCCCCc1cccc(O)c1C(=O)O [ANACARDIC ACID] | 1.1 (≈ 3.21 µM) | 7.2 (≈ 21 µM) | 31 (≈ 90.5 µM) | 0.8 (≈ 2.34 µM) | 1.4 (≈ 4.09 µM) | 25 (≈ 73 µM) | Not Active | – | – | –
3 | CCCCCCCCCCCCCCCc1cccc(OC)c1C(=O)O | 0.6 (≈ 1.65 µM) | 11 (≈ 30.3 µM) | 22 (≈ 60.7 µM) | 0.8 (≈ 2.21 µM) | 2.5 (≈ 6.9 µM) | > 33 | Not Active | – | – | –
4 | CCCCCCCCCCCCCCCCCc1cccc(O)c1C(=O)O | 0.7 (≈ 1.86 µM) | 9.1 (≈ 24.2 µM) | 8.3 (≈ 22 µM) | 1.9 (≈ 5.05 µM) | 1 (≈ 2.66 µM) | 29 (≈ 77 µM) | Not Active | – | – | –
5 | CCC=CCC=CCC=CCCCCCCCc1cccc(O)c1C(=O)O | 10 (≈ 27 µM) | – | – | – | 17 (≈ 45.9 µM) | – | Not Active | – | – | –
6 | CC(C)CCCCCCCCCCCCCc1cccc(O)c1C(=O)O | – | 16 (≈ 44.1 µM) | – | 9.7 (≈ 26.8 µM) | 9 (≈ 24.8 µM) | – | Not Active | – | – | –
7 | CCC(C)CCCCCCCCCCCCc1cccc(O)c1C(=O)O (stereo not given) | – | 36 (≈ 99.3 µM) | – | 10 (≈ 27.6 µM) | 31 (≈ 85.5 µM) | – | – | – | – | –
8 | CCCCCCCCCCc1cccc(O)c1O | – | – | – | – | 21 (≈ 83.9 µM) | – | – | – | – | –
9 | CCCCCCCCc1cccc(O)c1C(=O)O | 16 (≈ 63.9 µM) | – | 3.9 (≈ 15.6 µM) | – | – | – | Not Active | Not Active | – | –
10 | CCCCCCCCCCc1cccc(O)c1 | 4.1 (≈ 17.5 µM) | – | – | 1.9 (≈ 8.11 µM) | 4.5 (≈ 19.2 µM) | – | – | – | Not Active | Not Active
11 | CCCCCCCCCCCCCCCc1cccc(O)c1O | – | – | – | – | 29 (≈ 90.5 µM) | – | – | – | – | –
12 | CCCCCCCCCCCCCCCc1cccc(O)c1 | 20 (≈ 65.7 µM) | – | – | – | 7.2 (≈ 23.6 µM) | – | – | – | Not Active | –
13 | CCCCCCCCCCc1cccc(O)c1C(=O)O | – | – | – | 12 (≈ 43.1 µM) | – | – | Not Active | – | – | –
14 | CCCCCCCCCCc1ccccc1C(=O)O | – | – | – | 18 (≈ 68.6 µM) | – | – | Not Active | – | – | –
